Laboratory results: patent US5684030A, “2-substituted benzimidazole derivatives” (American Home Products Corporation, priority 1995, dated 1997)

Tests used:
[1] = system: porcine aortic smooth muscle cells; test: Inhibition of serum-stimulated porcine aortic smooth muscle cell proliferation (3H-thymidine); format: cell-based; conditions: Sus scrofa, 24-36 hours at 37° C., assayed at 1, 10, and 100 μM, read-out: Porcine Smooth Muscle Cell Antiproliferation IC50 or % Inhibition at × Concentration, Serum
Procedure: (§1) The ability of the compounds of the present invention to inhibit smooth muscle cell proliferation was established using isolated porcine aortic smooth muscle cells in a modification of the procedure of Castellot et al. J. Biol. Chem 257(19) 11256 (1982), as follows:
(§2) Fresh porcine aortas, scrupulously cleansed of fatty tissue, are rinsed in sterile phosphate-buffered saline with 2% antibiotic-antimycotic (100×) liquid (10,000 units of penicillin (base), 10,000 μg of streptomycin (base), and 25 μg of amphotericin B/mL utilizing penicillin G (sodium salt), streptomycin sulfate, and amphotericin B as Fungizone® in 0.85% saline, available from Gibco Laboratories, Grand Island Biological Co., Grand Island, N.Y.). The tissue is then digested in 10-15 mL of an enzyme solution containing collagenase type I, 165 U/mL; elastase type III, 15 U/mL; BSA, 2 mg/mL; and soybean trypsin inhibitor, 0.375 mg/mL, followed by incubation at 37° C. under 5% CO2 atmosphere for 10 to 15 minutes. After this treatment, the outer surface adventitia is removed by peeling with a forceps. The aorta is then longitudinally cut and laid open and the endothelial layer is removed by scraping.
(§3) The medial layer of cells is rinsed in the enzyme solution, and placed in a new 100 mm dish with 10 mL of enzyme solution. The medial layer of cells is minced using a fine pair of scissors and digested for 2-3 hours at 37° C. in 30 mL of fresh enzyme solution. After digestion, the medial tissue is homogenized using a sterile Pasteur pipette with a fire polished tip or an Eppendorf pipetter with a 200-1000 μL sterile pipette tip. The suspension is then centrifuged for 10 minutes at 8000 rpm and the pellet is suspended in 4-6 mL of fresh enzyme solution and plated onto 4-6 100 mm flasks with vented caps. The cells are then allowed to grow to confluence and split using 0.25% trypsin. The cells are evaluated for purity and overall quality using antibody to SMC actin.
(§4) The cells are assayed in early passage (generally passage 3-7) at sub-confluent conditions. Cultures are grown in 16 mm (24 well) multi-well culture dishes in media 199 supplemented with 10% fetal bovine serum and 2% antibiotic/antimycotic. At subconfluence, the cells are placed in a defined serum free, lymphocyte medium (AIM-V; Gibco) for 24-48 hours prior to initiating the experimental protocol.
(§5) The standard test procedure is initiated by addition of the test compound, ^3 H-thymidine and serum or a specific growth factor to the serum deprived synchronized cells. Growth factor and serum stimulations are optimized for each cell type. The test compounds are added to each well at 50 fold dilution (20 μL/well) and the plates are incubated for 24-36 hours at 37° C. in 5% CO2 atmosphere. Test compounds are dissolved in 50% ethanol and assayed at 1, 10, and 100 μM. As a control, RG 50872 (Bilder, G. A.; et al., Am. J. Cell Physiol., 1991; 260: C721) is routinely assayed under the conditions of each cell preparation at a concentration of 5 μM.
(§6) At the completion of the experiment, the plates are placed on ice, washed three times with ice cold PBS and incubated in ice cold 10% trichloroacetic acid (TCA) for 30 minutes to remove acid soluble proteins. […]
(§7) Data is quantitated by subjecting the vials to a scintillation counter, in triplicate, for both control and experimental samples. […] Data is expressed as a percent of control from which IC50 s are determined.

[2] = system: porcine aortic smooth muscle cells; test: Inhibition of PDGF-stimulated porcine aortic smooth muscle cell proliferation (3H-thymidine); format: cell-based; conditions: Sus scrofa; stimulated with human recombinant PDGF-AB; 24-36 hours at 37° C.; assayed at 1, 10, and 100 μM; read-out: Porcine Smooth Muscle Cell Antiproliferation IC50 or % Inhibition at × Concentration, PDGF
Procedure: as §1, §2, §3, §4, §5, §6, §7

[3] = Cytotoxicity, commercial modification of the MTT assay; format: cell-based, porcine; conditions: pig, smooth muscle cells, medium without serum, 24 hours at 37° C., no drug = 100% viable
Procedure: To distinguish cytotoxicity from the ability of a compound to prevent proliferation, the test compounds were examined using a commercial modification of the MTT assay. Briefly, cells were grown in 24 well plates to 70-80% confluency. The cells were serum deprived for 24-48 hours prior to initiation of the experimental protocol. To insure that the MTT assay monitored toxicity rather than proliferation, the cells were incubated with […] test compound in fresh medium without serum for 24 hours at 37° C. in a humidified CO2 incubator. Upon completion of the compound treatment, MTT indicator dye was added for 4 hours at 37° C. Cells were then solubilized and aliquots from each well were transferred to a 96-well plate for analysis. Absorbance at 570 nm wavelength with a reference wavelength of 630 nm was recorded using an ELISA plate reader. Results are reported as percent viable using no drug (100% viable) and pre-solubilization (0% viable) standards.

| Compound | IC50 [1] | IC50 [2] | viability at 24 h [3] |
| --- | --- | --- | --- |
| Fc1cc2[nH]c(SCc3ccc(Cl)c(Cl)c3)nc2cc1Cl [Example 1, 5(6)-Chloro-2-(3,4-dichlorobenzylsulfanyl)-6(5)-fluoro-1H-benzoimidazole] | 23.3 µM | 0.06 to 0.61 µM | 100% |
| O=[N+]([O-])c1ccc2[nH]c(SCc3ccc(Cl)c(Cl)c3)nc2c1 [Example 2, 2-(3,4-Dichlorobenzylsulfanyl)-5-nitro-1H-benzoimidazole] | 10 µM | 0.12 to 1 µM | 100% |
| Clc1ccc(CSc2nc3ccccc3[nH]2)cc1Cl [Example 3, 2-(3,4-Dichlorobenzylsulfanyl)-1H-benzoimidazole] | 12.1 µM | 4.4 µM | 100% |
| COC(=O)c1ccc(CSc2nc3ccccc3[nH]2)cc1 [Example 4, 4-(1H-Benzoimidazol-2-ylsulfanylmethyl)-benzoic acid methyl ester] | 1.53 µM | 3.74 µM | 100% |
| COC(=O)c1ccc(CSc2nc3cc([N+](=O)[O-])ccc3[nH]2)cc1 [Example 5, 4-(5-Nitro-1H-benzoimidazol-2-ylsulfanylmethyl)-benzoic acid methyl ester] | 18.2 µM | 6.17 µM | 100% |
